Legend:
[1] = tested on: cSSSI due to gram-positive pathogens; assay: Phase 2 randomized double-blind study of three oritavancin dose regimens in cSSSI: clinical response at test-of-cure; format: in vivo, human; conditions: for Cure (cure and improvement), % of patients: TOC
Description: (§1) A phase 2, multi-center, randomized, double-blind, parallel, active-comparator study in which three dose regimens of oritavancin were explored as a treatment for cSSSI due to gram-positive pathogens was conducted using: a daily dose (200 mg) administered for three to seven days, a single dose (1200 mg), and an infrequent dose (800 mg dose with option for an additional 400 mg on Day 5).
(§2) Patients were randomized through an interactive voice response system in a 1:1:1 ratio to receive either 1) oritavancin […] daily dose: 200 mg IV daily for 3 to 7 days as determined by the investigator based on clinical criteria, 2) oritavancin single dose: 1200 mg oritavancin IV on Day 1, or; 3) oritavancin infrequent dose: 800 mg IV on Day 1 with optional 400 mg IV on Day 5 as determined by investigator based on clinical criteria. During randomization patients were stratified by disease categories of wound infection, major abscess, and cellulitis. Placebo IV (5% dextrose in water) was given to maintain the blind.
(§3) Analyses were performed on four patient populations: intent-to-treat (ITT), modified intent-to-treat (MITT), clinically evaluable (CE) and microbiologically evaluable (ME). The ITT population included patients who were randomized to treatment and received any amount of study medication. Two patients who were potentially unblinded were excluded from the ITT population for all efficacy analyses. The MITT population included all ITT patients with a gram-positive pathogen isolated at baseline.
The primary efficacy endpoint was the clinical response in the CE population at TOC, which occurred 20 to 28 days after study enrollment on Day 1. Clinical response was determined by the investigator as part of the end-of-therapy, TOC, and late follow-up procedures by assessing signs and symptoms including fever, pain, tenderness, erythema, induration, edema, purulent drainage, eschar, and devitalized tissue. A clinical response of cure, improvement, failure, or indeterminate was assigned at end-of-therapy and TOC by the investigator based on clinical signs and symptoms. At late follow-up, the investigator could assign the clinical response of relapse in addition to cure, improvement, or indeterminate. Only patients with a clinical response of cure or improvement at TOC were assessed for clinical response at late follow-up.
Cure was defined as resolution of purulent drainage, pain, edema, fever, erythema, tenderness, and induration. Serous drainage or aspirate and/or granulation tissue could be present. Improvement was defined as resolution of purulent drainage and, in the case of cellulitis, cessation of fever and pain. Residual erythema, edema, pain (in the case of wound or abscess), tenderness, and/or induration could be present as could serous drainage, granulation tissue, eschar, and/or devitalized tissue. Failure included any of the following: presence of purulent drainage (or aspirate) and/or fever; the unanticipated need for abscess drainage or removal of sutures (for treatment of infection)>48 hours after initiation of study therapy; or treatment with nonstudy systemic antibiotic having activity against gram-positive pathogen(s) for the primary infection site or use of topical antibiotics at the site of primary infection 24 hours or more after initiation of study medication therapy.
The primary efficacy endpoint was clinical response (either cure or improvement versus failure) at TOC in the CE population. The primary efficacy analyses were a comparison of the proportions of CE patients with a clinical response of cure (defined as investigator assessment of cure or improvement) in the daily dose group compared to, 1) the single dose group and 2) the infrequent dose group. Adjusted estimates for the differences in response rates and the corresponding confidence intervals (CI) were constructed using the Mantel-Haenszel method stratified by disease category.

[2] = Phase 2 cSSSI study: safety and tolerability; format: in vivo, human
Description: as §1, §2, §3

[3] = Clinically evaluable, cellulitis
[4] = Clinically evaluable, major abscess
[5] = Clinically evaluable, Mantel-Haenszel stratified by disease
[6] = Intent to treat, Mantel-Haenszel stratified by disease
[7] = Microbiologically evaluable, Mantel-Haenszel stratified by disease
[8] = Modified intent-to-treat, Mantel-Haenszel stratified by disease

Structure (SMILES): CN[C@H](CC(C)C)C(=O)N[C@H]1C(=O)N[C@@H](CC(N)=O)C(=O)N[C@H]2C(=O)N[C@H]3C(=O)N[C@H](C(=O)N[C@H](C(=O)O)c4cc(O)cc(O)c4-c4cc3ccc4O)[C@H](O[C@H]3C[C@](C)(N)[C@@H](O)[C@H](C)O3)c3ccc(c(Cl)c3)Oc3cc2cc(c3O[C@@H]2O[C@H](CO)[C@@H](O)[C@H](O)[C@H]2O[C@H]2C[C@](C)(NCc3ccc(-c4ccc(Cl)cc4)cc3)[C@@H](O)[C@H](C)O2)Oc2ccc(cc2Cl)[C@H]1O [Oritavancin, N-(4-(4-chlorophenyl)benzyl)A82846B]
- Estimated Difference in cure rate 800 mg − 200 mg [1, 3]: 14.4%
- Estimated Difference in cure rate 1200 mg − 200 mg [1, 3]: 29.2%
- Cure (cure and improvement), % of patients ([1]; Clinically evaluable, cellulitis, 200 mg IV daily for 3 to 7 days): 58.3%
- Cure (cure and improvement), % of patients ([1]; Clinically evaluable, cellulitis, 800 mg IV Day 1 with optional 400 mg Day 5): 72.7%
- Cure (cure and improvement), % of patients ([1]; Clinically evaluable, cellulitis, single dose 1200 mg IV Day 1): 87.5%
- Estimated Difference in cure rate 800 mg − 200 mg [1, 4]: −4.8%
- Estimated Difference in cure rate 1200 mg − 200 mg [1, 4]: −2.3%
- Cure (cure and improvement), % of patients ([1]; Clinically evaluable, major abscess, 200 mg IV daily for 3 to 7 days): 92.3%
- Cure (cure and improvement), % of patients ([1]; Clinically evaluable, major abscess, 800 mg IV Day 1 with optional 400 mg Day 5): 87.5%
- Cure (cure and improvement), % of patients ([1]; Clinically evaluable, major abscess, single dose 1200 mg IV Day 1): 90.0%
- Estimated Difference in cure rate 800 mg − 200 mg ([1]; Clinically evaluable, wound): 6.6%
- Estimated Difference in cure rate 1200 mg − 200 mg ([1]; Clinically evaluable, wound): 1.3%
- Cure (cure and improvement), % of patients ([1]; Clinically evaluable, wound, 200 mg IV daily for 3 to 7 days): 65.4%
- Cure (cure and improvement), % of patients ([1]; Clinically evaluable, wound, 800 mg IV Day 1 with optional 400 mg Day 5): 72.0%
- Cure (cure and improvement), % of patients ([1]; Clinically evaluable, wound, single dose 1200 mg IV Day 1): 66.7%
- Estimated Difference in cure rate 800 mg − 200 mg [1, 5]: 5.2%
- Estimated Difference in cure rate 1200 mg − 200 mg [1, 5]: 8.6%
- Cure (cure and improvement), % of patients ([1]; Clinically evaluable, 200 mg IV daily for 3 to 7 days): 72.4%
- Cure (cure and improvement), % of patients ([1]; Clinically evaluable, 800 mg IV Day 1 with optional 400 mg Day 5): 77.5%
- Cure (cure and improvement), % of patients ([1]; Clinically evaluable, single dose 1200 mg IV Day 1): 81.5%
- Cure rate ([1]; Clinically evaluable, infrequent dose group, 800 mg Day 1 plus optional 400 mg Day 5): 77.1%
- Cure rate ([1]; Clinically evaluable, infrequent dose group, only 800 mg on Day 1): 78.3%
- Estimated Difference in cure rate 800 mg − 200 mg [1, 6]: 5.1%
- Estimated Difference in cure rate 1200 mg − 200 mg [1, 6]: 8.7%
- Cure (cure and improvement), % of patients ([1]; Intent to treat, 200 mg IV daily for 3 to 7 days): 72.4%
- Cure (cure and improvement), % of patients ([1]; Intent to treat, 800 mg IV Day 1 with optional 400 mg Day 5): 78.2%
- Cure (cure and improvement), % of patients ([1]; Intent to treat, single dose 1200 mg IV Day 1): 81.8%
- Estimated Difference in cure rate 800 mg − 200 mg [1, 7]: 11.0%
- Estimated Difference in cure rate 1200 mg − 200 mg [1, 7]: 8.5%
- Cure (cure and improvement), % of patients ([1]; Microbiologically evaluable, 200 mg IV daily for 3 to 7 days): 69.1%
- Cure (cure and improvement), % of patients ([1]; Microbiologically evaluable, 800 mg IV Day 1 with optional 400 mg Day 5): 81.3%
- Cure (cure and improvement), % of patients ([1]; Microbiologically evaluable, single dose 1200 mg IV Day 1): 79.3%
- Estimated Difference in cure rate 800 mg − 200 mg [1, 8]: 11.1%
- Estimated Difference in cure rate 1200 mg − 200 mg [1, 8]: 10.1%
- Cure (cure and improvement), % of patients ([1]; Modified intent-to-treat, 200 mg IV daily for 3 to 7 days): 68.8%
- Cure (cure and improvement), % of patients ([1]; Modified intent-to-treat, 800 mg IV Day 1 with optional 400 mg Day 5): 80.6%
- Cure (cure and improvement), % of patients ([1]; Modified intent-to-treat, single dose 1200 mg IV Day 1): 80.3%
- Patients with cellulitis who failed having unplanned surgical procedures or interventions ([1]; daily dose group (200 mg)): 29%
- Relapse in CE patients ([1]; daily dose group, late follow-up): no patients
- Patients with cellulitis who failed having unplanned surgical procedures or interventions ([1]; infrequent dose group (800 mg)): 7%
- Relapse rate in CE patients ([1]; infrequent dose group, late follow-up): 3.7%
- Patients with cellulitis who failed having unplanned surgical procedures or interventions ([1]; single dose group (1200 mg), n/total): 0/9
- Relapse rate in CE patients ([1]; single dose group, late follow-up): 1.6%
- Patients with a serious adverse event ([2]; all groups (25 patients)): 8.3%
- Early discontinuation of study medication for lack of efficacy ([2]; all three treatment groups together (10/302)): 3.3%
- Adverse events being mild ([2]; daily dose group): 51.8%
- Adverse events considered mild or moderate in intensity ([2]; daily dose group): 85.7%
- Incidence of serious adverse events ([2]; daily dose group): 11%
- Patients who discontinued study medication due to an adverse event ([2]; daily dose group): 3.0%
- Patients with phlebitis assessed as related to study medication ([2]; daily dose group): 3.0%
- Patients who died during the study (n/total) ([2]; daily dose group, none related to study medication): 3/100
- Adverse events being mild ([2]; infrequent dose group): 60.3%
- Adverse events considered mild or moderate in intensity ([2]; infrequent dose group): 95.2%
- Incidence of serious adverse events ([2]; infrequent dose group): 6.8%
- Patients who discontinued study medication due to an adverse event ([2]; infrequent dose group): 1.0%
- Patients with phlebitis assessed as related to study medication ([2]; infrequent dose group): 8.7%
- Patients with related phlebitis ([2]; infrequent dose group, 800 mg only): 11.8%
- Patients with related phlebitis ([2]; infrequent dose group, 800 mg plus the 400 mg dose): 7.2%
- Patients who died during the study (n/total) ([2]; infrequent dose group, none related to study medication): 2/103
- Adverse events being mild ([2]; single dose group): 58.2%
- Adverse events considered mild or moderate in intensity ([2]; single dose group): 94.5%
- Incidence of serious adverse events ([2]; single dose group): 7.1%
- Patients who died during the study (n/total) ([2]; single dose group): 0/99
- Patients who discontinued study medication due to an adverse event ([2]; single dose group): 3.0%
- Patients with phlebitis assessed as related to study medication ([2]; single dose group): 4.0%
- Serious adverse event investigator-assessed as related to study medication ([2]; single dose group (dyspnoea; hypersensitivity)): Two
- Blood creatine phosphokinase (CPK) increase ([2]; single dose group compared to the daily and infrequent dose groups): higher incidence
